Data: US11180573B2, “Extracellular matrix-producing composition using MAST4 gene and preparation method therefor” (priority 2017, dated 2021)

Test system: human primary chondrocytes
Test: TGF-β1 treatment of human primary chondrocytes, expression by RT-PCR and Western blotting
Assay type: cell-based
Experimental: In detail, the human primary chondrocytes of Example 4-1 were treated with TGF-β1, and an expression level thereof was measured by RT-PCR as in Examples 1-2 and 1-3 and Western blotting.

[1] = co-treatment with TGF-β1 (5 ng/ml), compared with single treatment with TGF-β1, FIG. 9B
[2] = TGF-β1 5 ng/ml for 24 hours, 48 hours, or 72 hours, FIG. 9

Row | Compound | Acan expression increased by TGF-β1 [1] | inhibitory effect on MAST4 expression (of TGF-β1) [1] | MAST4 expression [2] | expression of extracellular matrix factors [2]
1 | Cc1cccc(-c2[nH]c(CNc3ccccc3F)nc2-c2ccc3ncnn3c2)n1 [TEW-7197] | suppressed | decreased | – | –
2 | TGF-β1: growth factor that reduces MAST4 expression in human chondrocytes | – | – | suppressed | increased
